Key:
[1] = Equilibrium dialysis, binding to beta-hydroxypropyl-cyclodextrine as sink compound; conditions: membrane cut off 1 kDa; for fb(%) excipient binding level: Warfarin 0.01 mM to 0.4 mM, UV; for Average Binding [%] to beta-hydroxypropyl-cyclodextrine: beta-hydroxypropyl-cyclodextrine 10% (m/V), test compound 0.02 mM-0.06 mM, DMSO 6% (V/V)
Experimental: A reusable 96-well Micro-Equilibrium dialysis Device 96 chamber was used for the following experiments. The chamber system consists of 10 Teflon™ bars, wherein semipermeable membranes (see 1.2 Membranes) were placed between two Teflon™ bars each to form two compartment of each well. 2) The protein chamber (chamber 2) is filled with buffer and the other excipients to the final volume of approximately 100-150 ul. […] 5) The chamber system was shaken for 1 hour, then incubated over night (approximately 12 hours). Long duration shaking should be avoided due to the risk of higher evaporation caused by the generated heat.

[2] = Equilibrium dialysis, excipient binding to gamma-cyclodextrin; conditions: γ-Cyclodextrin 2.5% (m/V); membrane cut off 1 kDa; Warfarin 0.01 mM to 0.4 mM; UV
Experimental: (§1) A reusable 96-well Micro-Equilibrium dialysis Device 96 chamber was used for the following experiments. The chamber system consists of 10 Teflon™ bars, wherein semipermeable membranes (see 1.2 Membranes) were placed between two Teflon™ bars each to form two compartment of each well.
(§2) 2) The protein chamber (chamber 2) is filled with buffer and the other excipients to the final volume of approximately 100-150 ul. It is important that on each side the volume is exactly the same.
(§3) 5) The chamber system was shaken for 1 hour, then incubated over night (approximately 12 hours). Long duration shaking should be avoided due to the risk of higher evaporation caused by the generated heat.
(§4) 6) After reaching the equilibrium, a sample from the sink chamber (reference, binding study II with sink compound and HSA), or from the protein chamber (reference, binding study I with sink compound alone) was transferred to a half-area UV-plate and analyzed spectrometrically (spectra max, 190 Plate Reader; 250-500 nm) or it was analysed by HPLC.

[3] = Equilibrium dialysis, binding to combination of PVP25 and beta-hydroxypropyl-cyclodextrin as sink compound; conditions: PVP 25 4% (m/V) + β-Hydroxypropyl-cyclodextrin 4% (m/V); membrane cut off 1 kDa; test compound 0.02 mM to 0.6 mM
Experimental: as §1, §2
(§5) with PVP and PVP in combination with cyclodextrines as sink compound in chamber the volume was 100 μl. (PVP 15 4% (m/V), PVP 25 4% (m/V), PVP 25 4% (m/V)+β-Hydroxypropyl-cyclodextrin 4% (m/V))
as §3, §4

[4] = Equilibrium dialysis, binding to PVP 15; conditions: PVP 15 40 g/l; drugs 0.02-0.6 mM
Experimental: as §1, §2, §5, §3, §4
(§6) Concentrations of the drugs: 0.02-0.6 mM
(§7) Amounts of PVP 15 and PVP25: each 40 g/l

[5] = Equilibrium dialysis, binding to PVP 25; conditions: PVP25 40 g/l; drugs 0.02-0.6 mM
Experimental: as §1, §2, §5, §3, §4, §6, §7

[6] = molecular target: human serum albumin (HSA) (Homo sapiens, UniProt P02768); assay: Assay with PVP 25 (sink compound) and human serum albumin, new approach; assay type: in vitro ADME; conditions: pH 7.4, PVP 25 4.0% (m/V) as sink compound, HSA 60 mM, membrane MWCO 3.5 kDa, test compound 0.02 mM to 0.6 mM, HPLC; for fraction bound to HSA: read-out: fu (%) newApproach (binding level to HSA)
Sequence of human serum albumin (HSA) (P02768 25-609): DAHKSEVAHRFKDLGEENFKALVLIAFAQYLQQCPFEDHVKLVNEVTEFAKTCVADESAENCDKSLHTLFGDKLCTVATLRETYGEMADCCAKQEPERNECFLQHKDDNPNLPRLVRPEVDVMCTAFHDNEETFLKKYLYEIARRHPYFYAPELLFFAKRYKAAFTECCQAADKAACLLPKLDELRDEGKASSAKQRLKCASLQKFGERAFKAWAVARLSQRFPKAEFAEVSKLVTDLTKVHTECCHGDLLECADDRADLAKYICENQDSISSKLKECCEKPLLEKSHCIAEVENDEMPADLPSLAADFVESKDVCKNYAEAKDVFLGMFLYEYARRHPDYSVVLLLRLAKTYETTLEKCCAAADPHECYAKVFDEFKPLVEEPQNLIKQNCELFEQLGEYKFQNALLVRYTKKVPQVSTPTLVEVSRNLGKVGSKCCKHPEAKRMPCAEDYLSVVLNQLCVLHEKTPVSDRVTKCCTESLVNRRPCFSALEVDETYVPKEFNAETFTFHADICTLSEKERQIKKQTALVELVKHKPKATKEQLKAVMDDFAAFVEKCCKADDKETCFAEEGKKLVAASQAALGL
Experimental: as §2
End concentration of HSA: 60 mM
as §3, §4
The distribution coefficient and the binding constant can be calculated with binding studies. The binding of drugs to HSA is a reversible process which can be described by the following equilibrium [Du]+[HSA]·[D·HSA]
The binding constant KHSA can be converted to the fraction unbound fu with the following formula derived from the law of mass:
The binding constant to HSA (KHSA) (2) can be calculated from the combination of partition coefficients to PVP (DCPVP) (3) and to HSA in the presence of PVP (DCHSA′) (3). KHSA=DCPVP·DCHSA′ (2)
Vtotal is total volume in the dialysis chamber (200 μl) and VHSA and VPVP are the volumes of HSA and PVP 25, which can be calculated from the density and the weighted sample
Analytics was carried out on an HPLC-system (Agilent 1100). The separations were performed on a RP column (Chromolith flash, RP18e, 4.6×25 mm). Samples were eluted with gradient of water with 0.05% formic acid (A) and Acetonitril (B).

[7] = tested on: plasma protein; conditions: conventional methods, literature values; cited from earlier work
[8] = tested on: plasma protein; assay: Protein binding determined with conventional methods (literature values / inhouse); assay type: in vitro ADME; conditions: read-out: fu (%) Literature (binding level)
Excerpt: The determined binding levels of the test compound in example 6 (“new approach”) were compared with the values determined with conventional methods (literature values).

CC(=O)CC(c1ccccc1)c1c(O)c2ccccc2oc1=O (racemic) [Warfarin, (RS)-4-hydroxy-3-(3-oxo-1-phenylbutyl)-2H-chromen-2-one]
fb(%) excipient binding level ([1]; β-Hydroxypropyl-cyclodextrin 1% (m/V)): 6.8%
fb(%) excipient binding level ([1]; β-Hydroxypropyl-cyclodextrin 10% (m/V)): 27.6%
fb(%) excipient binding level [2]: 6.0%
fb(%) excipient binding level [3]: 27.9%

O=C(O)Cc1ccccc1Nc1c(Cl)cccc1Cl [Diclofenac, 2-(2-(2,6-dichlorophenylamino)phenyl)acetic acid]
Average Binding [%] to beta-hydroxypropyl-cyclodextrine [1]: 23.1%
Average binding [%] to PVP15 [4]: 21.7%
Average binding [%] to PVP25 [5]: 46.4%

C=C[C@H]1C[N@@]2CC[C@H]1C[C@H]2[C@H](O)c1ccnc2ccc(OC)cc12 [Quinine]
Average Binding [%] to beta-hydroxypropyl-cyclodextrine [1]: 21.6%

CN1/C(=C(/O)Nc2ccccn2)C(=O)c2ccccc2S1(=O)=O [Piroxicame, (8E)-8-[hydroxy-(pyridin-2-ylamino)methylidene]-9-methyl-10,10-dioxo-10λ6-thia-9-azabicyclo[4.4.0]deca-1,3,5-trien-7-one]
fraction bound [6]: 99.6%
fu (%) Literature (binding level) [7]: 99.0%

CN(C)CCCN1c2ccccc2Sc2ccc(Cl)cc21 [Chlorpromazine, 3-(2-chloro-10H-phenothiazin-10-yl)-N,N-dimethyl-propan-1-amine]
fraction bound to HSA [6]: 0.994
fu (%) Literature (binding level) [7]: 97.80%

COc1ccc(Cl)cc1C(=O)NCCc1ccc(S(=O)(=O)NC(=O)NC2CCCCC2)cc1 [Glibenclamid, 5-chloro-N-(4-[N-(cyclohexylcarbamoyl)sulfamoyl]phenethyl)-2-methoxybenzamide]
fraction bound to HSA [6]: 1
fraction bound [8]: 0.997

NC(=O)N1c2ccccc2C=Cc2ccccc21 [Carbamazepin]
Average Binding [%] to beta-hydroxypropyl-cyclodextrine [1]: 31.3%

CO/N=C(\C(=O)N[C@@H]1C(=O)N2C(C(=O)O)=C(CSc3nc(=O)c(=O)[nH]n3C)CS[C@H]12)c1csc(N)n1 [Ceftriaxone]
Average Binding [%] to beta-hydroxypropyl-cyclodextrine [1]: 14.2%

NS(=O)(=O)c1cc(C(=O)O)c(NCc2ccco2)cc1Cl [Furosemid, 4-chloro-2-(furan-2-ylmethylamino)-5-sulfamoylbenzoic acid]
Average binding [%] to PVP15 [4]: 37.0%
Average binding [%] to PVP25 [5]: 49.4%

Reference: patent US8778617B2, “Method for determining the binding constant of high affinity compounds” (Hoffmann-La Roche Inc., priority 2010, dated 2014)
